Values of other authors in patent publication US10603329B2 (INDENA S.P.A., priority 2006, dated 2020).

Test system: cancer cells
Conditions: in vitro; read-out: IC50, growth of cancer cells

Question: With `COc1cc(C=CC(=O)CC(=O)C=Cc2ccc(O)c(OC)c2)ccc1O` [curcumin, 1,7-bis(4-hydroxyl-3-methoxyphenyl)-1,6-heptadiene-3,5-dione] as the molecule, how does the IC50 read?
Answer: 20 to 75 µM
